Values quoted from earlier work, collected in patent US20220175741A1, “COMPOSITIONS, DEVICES AND METHODS FOR TREATING AUTISM” (priority 2017, published 2022).

Columns and labels:
[1] = test system: children with Autism; conditions: within a few weeks of treatment; Sandler et al, Journal of Child Neurology 2000
[2] = test system: child's autistic symptoms; conditions: one child; Rodakis, Microbial Ecology in Health & Disease 2015

Compound | behavioural changes of autistic children [1] | autistic symptoms [2]
CN[C@H](CC(C)C)C(=O)N[C@H]1C(=O)N[C@@H](CC(N)=O)C(=O)N[C@H]2C(=O)N[C@H]3C(=O)N[C@H](C(=O)N[C@H](C(=O)O)c4cc(O)cc(O)c4-c4cc3ccc4O)[C@H](O)c3ccc(c(Cl)c3)Oc3cc2cc(c3O[C@@H]2O[C@H](CO)[C@@H](O)[C@H](O)[C@H]2O[C@H]2C[C@](C)(N)[C@H](O)[C@H](C)O2)Oc2ccc(cc2Cl)[C@H]1O [vancomycin] | reversal of behavioural changes and progress to normality | 
CC1(C)S[C@@H]2[C@H](NC(=O)[C@H](N)c3ccc(O)cc3)C(=O)N2[C@H]1C(=O)O [amoxycillin] |  | reversed almost completely
